Measured values: patent US6861230B1, “Antibiotic sensitivity testing” (priority 1998, dated 2005)

How the values were obtained:
[1] = test system: E. coli 10243 (sensitive, untransformed); experiment: Adenylate kinase release (cell lysis) assay with antibiotic and phage 10359, sensitive strain; format: cell-based, Escherichia coli
Description: For example, in one embodiment, a sample of bacterial cells is divided into first and second samples. The first sample of bacterial cells is mixed with a solution containing ADP and a detergent in the presence of magnesium ions. This extracts the adenylate kinase from all the cells present in the sample, thus allowing the ATP generating reaction to occur. The reaction is allowed to proceed for the required time e.g. 5 minutes, after which bioluminescence reagent is added and the resulting light measured in a luminometer. An assay performed in this way determines the total amount of adenylate kinase in a sample, be it extracellular or intracellular.
The second sample is subjected to a similar assay but in the absence of detergent so that only extracellular adenylate kinase is measured. […]

[2] = test system: E. coli 10243 carrying plasmid encoding ampicillin resistance (pUC18); experiment: Adenylate kinase release (cell lysis) assay with antibiotic and phage 10359, ampicillin-resistant strain; format: cell-based, Escherichia coli; details: log phase, 10^5 phage 10359 at T0, 50 μg/ml ampicillin at T5
Description: A plasmid encoding ampicillin resistance (pUC18) was introduced into a pure culture of E. coli 10243 in order to induce resistance without altering phage host specificity.
Log phase cultures of both resistant and sensitive strains of E. coli 10243 were infected with 10^5 phage 10359 at T0 and 50 μg/ml ampicillin at T5.

SMILES	Degree of phage mediated lysis in cultures containing the antibiotic ([1]; phage 10359 plus chloramphenicol 34 μg/ml versus phage only, 80 min)	Cell lysis with both bacteriophage and chloramphenicol compared with chloramphenicol alone ([1]; phage 10359 plus chloramphenicol 34 μg/ml, 80 min)	Cell lysis due to ampicillin (adenylate kinase release) ([1]; sensitive strain, log phase, 10^5 phage 10359 at T0, 50 μg/ml ampicillin at T5, time in min)	Effect of the antibiotic on the resistant strain (adenylate kinase release) [2]
O=C(N[C@H](CO)[C@H](O)c1ccc([N+](=O)[O-])cc1)C(Cl)Cl [chloramphenicol]	considerably less	Greater cell lysis	–	–
CC1(C)S[C@@H]2[C@H](NC(=O)[C@H](N)c3ccccc3)C(=O)N2[C@H]1C(=O)O [ampicillin]	–	–	evident at T10 and significant at T20	unaffected by the antibiotic
